Among the data in US7767676B2, “Dihydro-1,3,5-triazine amine derivatives and their therapeutic uses” (Merck Sante, priority 2000, dated 2010) are change in vivo and melting point values, retold here.

What is called melting point is the temperature, or range, at which the solid turns liquid.

Structures can show the parent of a compound that is named as a salt. Where two headings read alike, the source gives them in different places.

For data set [1], the system named is non-insulin-dependent diabetes induced in rats by Streptozotocin. Kind of data set: Antidiabetic activity in the Nostz rat (non-insulin-dependent diabetes induced by neonatal streptozotocin), glycaemia after oral treatment. It is filed as in vivo. The following applies: diabetic rats, blood 2 h after last administration; for change in vivo at 20 mg/kg: 20 mg/kg/D oral; for change in vivo at 200 mg/kg: 200 mg/kg/D oral. The method, then: Study of the Antidiabetic Activity in the Nostz Rat
The antidiabetic activity of the compounds of formula (I) administered orally was determined on an experimental model of non-insulin-dependent diabetes induced in rats by Streptozotocin.
The non-insulin-dependent diabetes model is obtained in rats by neonatal injection (on the day of birth) of streptozotocin.
The diabetic rats used were 8 weeks old. The animals were kept, from the day of their birth to the day of the experiment, in an animal house at a controlled temperature of 21 to 22° C. and subjected to a fixed cycle of light (from 7 am to 7 pm) and darkness (from 7 pm to 7 am). Their diet consisted of a maintenance diet, water and food were provided “ab libitum”, with the exception of the 2 hours of fasting preceding the tests when the food is withdrawn (postabsorptive state).
The rats were treated by the oral route for one (D1) or four (D4) days with the product to be tested. Two hours after the last administration of the product and 30 minutes after anaesthetizing the animals with sodium pentobarbital (Nembutal a), 300 μl of blood sample are collected from the end of the tail.
By way of example, results obtained are assembled in Table III.

Where [2] appears, read: 24 h, 1 day of treatment, read-out: percentage variation of glycaemia at D1 relative to D0.
Setting [3] is: 96 h, 4 days of treatment, read-out: percentage variation of glycaemia at D4 relative to D0.

For the molecule `CN(C)C1=NC(C(C)(C)C)N=C(N)N1` (centres unmarked) [Compound 42], in data set [1] (setting [2]), the change in vivo at 20 mg/kg is -5% and the change in vivo at 200 mg/kg was -26%. In data set [1] (setting [3]), the change in vivo at 20 mg/kg is -4% and the change in vivo at 200 mg/kg was -17%.

Regarding `CN(C)C1=NC(c2ccccc2)N=C(N)N1` (centres unmarked) (as salt: HCl) [Compound 10], the melting point lay in the range of 239 to 241 °C.

In turn, `CN(C)C1=NC(C)(C)N=C(N2CCCC2)N1` (as salt: HCl) [Compound 17] displayed a melting point of over 260 °C.

For the molecule `CN(C)C1=NC2(CCCCC2)N=C(N)N1` (as salt: HCl) [Compound 4], the melting point is 243 to 245 °C.

Take `COc1ccc(C2N=C(N)NC(N(C)C)=N2)cc1` (centres unmarked) (as salt: HCl) [Compound 11]: the melting point fell in the range of 221 to 223 °C.

As for `CN(C)C1=NC(C)(C)N=C(N(C)C)N1` [Compound 15], in data set [1] (setting [2]), the change in vivo at 20 mg/kg is -8% and the change in vivo at 200 mg/kg was -4%. In addition, in data set [1] (setting [3]), the change in vivo at 20 mg/kg is -9% and the change in vivo at 200 mg/kg was -5%.

The molecule `CCC1N=C(N)NC(N(C)C)=N1` (centres unmarked) (as salt: HCl) [Compound 1, 2-amino-3,6-dihydro-4-dimethylamino-6-ethyl-1,3,5-triazine hydrochloride] displayed a melting point of 218 to 220 °C.

The molecule `CN(C)C1=NC(C2CC=CCC2)N=C(N)N1` (centres unmarked) (as salt: toluenesulphonate) [Compound 45] registered a melting point of 217 to 219 °C.

Regarding `CC(C)C1N=C(N)NC(N(C)C)=N1` (centres unmarked) [Compound 44], in data set [1] (setting [2]), the change in vivo at 20 mg/kg was -7% and the change in vivo at 200 mg/kg is -22%. In data set [1] (setting [3]), the change in vivo at 20 mg/kg is -6% and the change in vivo at 200 mg/kg was -25%.

As to `CN(C)C1=NC(C)(C)N=C(N2CCCC2)N1` [Compound 17], in data set [1] (setting [2]), the change in vivo at 20 mg/kg is -12% and the change in vivo at 200 mg/kg is -8%. In data set [1] (setting [3]), the change in vivo at 20 mg/kg was -8% and the change in vivo at 200 mg/kg was -14%.

`CC(CCC(=O)O)[C@H]1CCC2C3C(C[C@H](O)[C@@]21C)[C@@]1(C)CCC2(CC1C[C@H]3O)N=C(N)NC(N(C)C)=N2` (some centres unmarked) [Compound 25]: in data set [1] (setting [2]), the change in vivo at 20 mg/kg was -4% and the change in vivo at 200 mg/kg was -7%. Further, in data set [1] (setting [3]), the change in vivo at 20 mg/kg is -11% and the change in vivo at 200 mg/kg was -6%.

`CC1N=C(N(C)C)NC(N2CCCC2)=N1` (centres unmarked) (as salt: salt) [Compound 21] came in with a melting point of over 140 °C.

`CN(C)C1=NC(C2CCCCC2)N=C(N)N1` (centres unmarked) (as salt: toluenesulphonate) [Compound 34] displayed a melting point of 201 to 203 °C.

As for `CN(C)C1=NC2(CCC(OCc3ccccc3)CC2)N=C(N)N1` (centres unmarked) [Compound 27], the change in vivo at 20 mg/kg in data set [1] (setting [2]) is -14%; in data set [1] (setting [3]), -9%. In addition, the change in vivo at 200 mg/kg in data set [1] (setting [2]) was -12%; in data set [1] (setting [3]), -13%.

In the case of `CN(C)C1=NC2(CCCC2)N=C(N)N1` [Compound 31], in data set [1] (setting [2]), the change in vivo at 20 mg/kg was -5% and the change in vivo at 200 mg/kg is -3%. Further, in data set [1] (setting [3]), the change in vivo at 20 mg/kg is -11% and the change in vivo at 200 mg/kg was -15%.

The molecule `C=CCNC1=NC(C)(C)N=C(N(C)C)N1` (as salt: HCl) [Compound 8] displayed a melting point of 124 to 126 °C.

In the case of `CN(C)C1=NC(C)(CCCO)N=C(N)N1` (centres unmarked) [Compound 7], the change in vivo at 20 mg/kg in data set [1] (setting [2]) is -8%; in data set [1] (setting [3]), -11%. Further, the change in vivo at 200 mg/kg in data set [1] (setting [2]) was -10%; in data set [1] (setting [3]) it was -16%.

On to `CN(C)C1=NC2(CCC(O)CC2)N=C(N)N1` (centres unmarked) [Compound 28], for which, in data set [1] (setting [2]), the change in vivo at 20 mg/kg was -4% and the change in vivo at 200 mg/kg was -4%. For the same molecule, in data set [1] (setting [3]), the change in vivo at 20 mg/kg is -1% and the change in vivo at 200 mg/kg was -13%.

The molecule `CN(C)C1=NC2(CCOCC2)N=C(N)N1` (as salt: HCl) [Compound 38] displayed a melting point of over 260 °C.

In the case of `CN(C)C1=NC2(CCC(OCc3ccccc3)CC2)N=C(N)N1` (centres unmarked) (as salt: HCl) [Compound 27], the melting point is over 260 °C.

`CN(C)C1=NC(C(F)(F)F)N=C(N)N1` (centres unmarked) (as salt: toluenesulphonate) [Compound 36] returned a melting point of 251 to 253 °C.

Regarding `CC(C)CCCC(C)[C@H]1CCC2C3CCC4CC5(CC[C@]4(C)C3CC[C@@]21C)N=C(N)NC(N(C)C)=N5` (some centres unmarked) [Compound 19], in data set [1] (setting [2]), the change in vivo at 20 mg/kg is -10% and the change in vivo at 200 mg/kg is -4%. For the same molecule, in data set [1] (setting [3]), the change in vivo at 20 mg/kg is -6% and the change in vivo at 200 mg/kg was -14%.

Molecule `CN(C)C1=NC2(CCC(O)CC2)N=C(N)N1` (centres unmarked) (as salt: HCl) [Compound 28] gave a melting point of over 250 °C.

Take `CN(C)C1=NC2(CCCCC2)N=C(N)N1` [Compound 4]: the change in vivo at 20 mg/kg in data set [1] (setting [2]) was 0%; in data set [1] (setting [3]) it was -1%. Further, the change in vivo at 200 mg/kg in data set [1] (setting [2]) is -20%; in data set [1] (setting [3]), -10%.

With `C=CCNC1=NC(C)N=C(N(C)C)N1` (centres unmarked) [Compound 26], the change in vivo at 20 mg/kg in data set [1] (setting [2]) is -6%; in data set [1] (setting [3]), -11%. In addition, the figures for the change in vivo at 200 mg/kg in data set [1] (setting [2]) and in data set [1] (setting [3]) were -14% and -9%, respectively.

As to `CNC1=NC2(CCCCC2)N=C(N(C)C)N1` [Compound 22], in data set [1] (setting [2]), the change in vivo at 20 mg/kg is -23% and the change in vivo at 200 mg/kg was -13%. Further, in data set [1] (setting [3]), the change in vivo at 20 mg/kg was -16% and the change in vivo at 200 mg/kg turned out to be 0%.

As to `CC(C)NC1=NC(C)(C)N=C(N(C)C)N1` (as salt: HCl) [Compound 9], the melting point was 149 to 151 °C.

`CN(C)C1=NC(c2ccco2)N=C(N)N1` (centres unmarked) (as salt: HCl) [Compound 40] came in with a melting point of 225 to 227 °C.

Molecule `CN1CCC2(CC1)N=C(N)NC(N(C)C)=N2` (as salt: HCl) [Compound 39] had a melting point of over 260 °C.

`CC1N=C(N(C)C)NC(N(C)C)=N1` [Compound 2, 2,4-bisdimethylamino-3,6-dihydro-6-methyl-1,3,5-triazine hydrochloride]: the change in vivo at 20 mg/kg in data set [1] (setting [2]) was -11%; in data set [1] (setting [3]), -10%. Moreover, the change in vivo at 200 mg/kg in data set [1] (setting [2]) and in data set [1] (setting [3]) was -12% each time.

For `CN(C)C1=NC(c2ccc(O)cc2)N=C(N)N1` (centres unmarked) (as salt: HCl) [Compound 12], the melting point was 251 to 253 °C.

With `CN1CCC2(CC1)N=C(N)NC(N(C)C)=N2` [Compound 39], in data set [1] (setting [2]), the change in vivo at 20 mg/kg was -6% and the change in vivo at 200 mg/kg is -4%. In addition, in data set [1] (setting [3]), the change in vivo at 20 mg/kg is -6% and the change in vivo at 200 mg/kg is -7%.

For `CN(C)C1=NC(C)(C)N=C(N)N1` [Compound 3], in data set [1] (setting [2]), the change in vivo at 20 mg/kg is -10% and the change in vivo at 200 mg/kg is -18%. Further, in data set [1] (setting [3]), the change in vivo at 20 mg/kg is -8% and the change in vivo at 200 mg/kg was -22%.

With `CC1N=C(N(C)C)NC(N2CCCC2)=N1` (centres unmarked) [Compound 21], in data set [1] (setting [2]), the change in vivo at 20 mg/kg is -7% and the change in vivo at 200 mg/kg was -21%. Moreover, in data set [1] (setting [3]), the change in vivo at 20 mg/kg is -2% and the change in vivo at 200 mg/kg is -24%.

Turning to `CCCC1N=C(N)NC(N(C)C)=N1` (centres unmarked) [Compound 32], the change in vivo at 20 mg/kg was found to be 2% in data set [1] (setting [2]) and 0% in data set [1] (setting [3]). The change in vivo at 200 mg/kg is -22% in data set [1] (setting [2]) and -18% in data set [1] (setting [3]).
